Earlier results in paper PMC7968864, “Theory of Allosteric Regulation in Hsp70 Molecular Chaperones” (QRB Discovery, 2020).

How the values were obtained:
I483D DnaK = system: I483D DnaK; set-up: method as in Wang et al., 2020; conditions: fluorescein-labelled NR peptide 10 nM, fluorescence anisotropy, ref Wang et al., 2020
WT DnaK = conditions: fluorescence anisotropy, ref Wang et al., 2020

## NRLLLTG [fluorescein-labelled NR peptide]
I483D DnaK
  peptide binding in ADP (in words): indistinguishable from that to WT when in ADP
WT DnaK
  peptide binding in ATP versus ADP (in words): much reduced in the presence of ATP as compared to when with ADP
